According to patent US20250064983A1, “COMPOSITIONS AND METHODS FOR TREATING A CARDIAC DISEASE” (The Children's Medical Center Corporation, priority 2022, published 2025):
“Also recorded” adds a separate entry of the source.

What was measured:
LKB1 knockout mice = assay: Example 5: beat-to-beat variability (EKG) in LKB1 knockout mice (AF model); type: in vivo, mouse
From the text: (§1) Two different atrial fibrillation (AF) mouse models were used to test the efficacy of AIP×5 at treating AF of different origins. The two different AF mouse models were liver kinase B1 (LKB1) knock out mice and T-box transcription factor 5 (Tbx5) knock out mice.
(§2) LKB1-floxed or Tbx5-floxed mice were used to test the efficacy of AIP×5. AAV-NPPA-Cre was then used to conditionally knock out LKB1 or Tbx5 from the atria of the mice. NPPA is an atria specific promoter, ensuring that Cre recombinase directed knockout of LKB1 or Tbx5 was restricted to the atria. AAV-NPPA-FP (fluorescent protein) was used as a control virus. AAV-NPPA-FP has no Cre, and therefore the gene of interest is not knocked out. Uninjected mice were also included as a control to account for any effects caused by AAV injections. AAV-cTnT-AIP×5 or AAV-cTnT-CN19o were both tested as potential therapies to AF.
(§3) In short, P3 LKB1-floxed or Tbx5-floxed mice were injected (or not injected in the uninjected controls), and then EKG measurements of the mice were taken every two weeks starting at P14. At 12 weeks, the mice were sacrificed, and the sacrificed mice were tested for protein expression.
AF was calculated using the standard deviation of the beat-to-beat timing differences. A high beat-to-beat variability when sedated was indicative of atrial misfiring.
Statistical significance in the tests illustrated in FIGS. 10 and 11 was conducted using a 2-way Anova with post-hoc Dunnett's multiple comparisons to control (FP) group.

Tbx5 knockout mice = assay: Example 5: beat-to-beat variability (EKG) in Tbx5 knockout mice (AF model); type: in vivo, mouse
From the text: as §1, §2, §3
AF was calculated using the standard deviation of the beat-to-beat timing differences. A high beat-to-beat variability when sedated was indicative of atrial misfiring. […]

[1] = test system: RYR2^R4650I/WT mouse model of CPVT; assay: ectopy and induced VT in RYR2^R4650I/WT mouse model of CPVT, AAV delivery; type: in vivo
From the text: FIGS. 2A-2G provide plots, a protein structure, schematics, a bar graph, and images showing how a therapeutic cargo containing a CaMKII inhibitor was optimized to treat catecholaminergic polymorphic ventricular tachycardia (CPVT) through altering potency, binding, and/or multimerization of the CaMKII inhibitor. FIG. 2A provides plots showing the IC50 concentrations for the autocamtide-2-related inhibitory peptide (AIP) and CN19o (Coultrap, et al. “Improving a Natural CaMKII Inhibitor by Random and Rational Design,” PLoS One, Oct. 3, 2011, doi.org/10.1371/journal.pone.0025245; and Ishida, et al, “Critical amino acid residues of AIP, a highly specific inhibitory peptide of calmodulin-dependent protein kinase II,” FEBS Letters, 427:115-118 (1998), the disclosures of which is incorporated herein by reference in its entirety for all purposes). […]
The development of improved agents for the treatment of CPVT, the CPVT treatment efficacy of polypeptides A) containing multiple repeats of AIP (FIG. 2C) or the potent CaMKII inhibitor CN19o or B) containing AIP or CN19o fused to FKBP12.6 (FIG. 2B), which binds RYR2, which is a target of CaMKII (FIG. 1A). […] The efficacy of the polypeptides in treatment of catecholaminergic polymorphic ventricular tachycardia (CPVT) was evaluated in the RYR2^R4650I/WT mouse model of CPVT as shown in FIG. 2D. […]

## YKKALHRQEAVDALYKKALHRQEAVDALYKKALHRQEAVDALYKKALHRQEAVDALYKKALHRQEAVDAL [AIP×5]
LKB1 knockout mice; 2-way Anova with Dunnett's
  beat-to-beat variability compared to control (non-LKB1 knockout) mice: no statistically significant difference in beat-to-beat variability
LKB1 knockout mice; AAV-cTnT vector, FIG. 10
  suppression of beat-to-beat variability: reduction in beat-to-beat variability; also recorded: effective in suppressing beat-to-beat variability
Tbx5 knockout mice; AAV-cTnT vector, FIG. 11
  suppression of beat-to-beat variability: reduction in beat-to-beat variability; also recorded: effective in suppressing beat-to-beat variability
Tbx5 knockout mice; after week 4
  beat-to-beat variability, statistical difference to control: no statistically significant difference in beat-to-beat variability
[1]; AAV vector (FIG. 2F)
  percent of mice that showed induced ventricular tachycardia (VT): reduction in instances of induced VT
[1]; RYR2^R4650I/WT mice, AAV vector (FIG. 2E, 2F)
  percent ectopy / CPVT treatment efficacy: greatest reduction in instances of ectopy; also recorded: most effective in treating CPVT
